According to the supplement of paper PMC10307832:

Experiments:
Selisistat + Trametinib = compound: C1CC(C2=C(C1)C3=C(N2)C=CC(=C3)Cl)C(=O)N [Selisistat] + CC(=O)Nc1cccc(-n2c(=O)n(C3CC3)c(=O)c3c(Nc4ccc(I)cc4F)n(C)c(=O)c(C)c32)c1 [Trametinib] (partner 0.02 µM); assay: relative viability (nuclei count vs DMSO), 5 days (fraction); higher = more cells survive
How it was run: (§1)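 A single step with final 0.05% Triton X-100, 1% formaldehyde and 1 ug/ml Hoechst fixed the cells and stained nuclei 5 days after treatment. Lung cancer cell lines in 1536-well plates had been treated by pin tool the day after seeding with one drug alone or a fixed anchor-drug dose plus five library-drug doses (not always all listed) in √10 steps, and nuclei were counted on 4× images. Relative viability is the ratio of nuclei in treated wells to nuclei in vehicle wells, taken as the median of duplicate plates.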

Serdemetan + Dasatinib = compound: c1ccc2c(CCNc3ccc(Nc4ccncc4)cc3)c[nH]c2c1 [Serdemetan] + Cc1nc(Nc2ncc(C(=O)Nc3c(C)cccc3Cl)s2)cc(N2CCN(CCO)CC2)n1 [Dasatinib] (partner 0.075 µM); assay: as above
How it was run: as §1

| Cell Line | relative viability (Selisistat + Trametinib; first compound 0.4 µM) | relative viability (Selisistat + Trametinib; first compound 1.265 µM) | relative viability (Selisistat + Trametinib; first compound 12.65 µM) | relative viability (Selisistat + Trametinib; first compound 40 µM) | relative viability (Serdemetan + Dasatinib; first compound 0.04 µM) | relative viability (Serdemetan + Dasatinib; first compound 0.1265 µM) | relative viability (Serdemetan + Dasatinib; first compound 0.4 µM) | relative viability (Serdemetan + Dasatinib; first compound 1.265 µM) | relative viability (Serdemetan + Dasatinib; first compound 4 µM) | relative viability (Selisistat + Trametinib; first compound 4 µM) |
| --- | --- | --- | --- | --- | --- | --- | --- | --- | --- | --- |
| NCI-H23 | 0.402 | 0.318 | 0.427 | 0.485 | 0.734 | 0.877 | 0.794 | 0.548 | 0.914 | – |
| HCC-366 | 0.435 | 0.302 | 0.301 | 0.285 | 0.637 | 0.472 | 0.542 | 0.0442 | 0.155 | 0.329 |
| EMC-BAC-2 | 0.907 | 0.927 | 0.885 | 0.816 | 0.304 | 0.358 | 0.344 | 0.268 | 0.293 | 0.96 |
| NCI-H2405 | 0.676 | 0.602 | 0.601 | 0.682 | 0.173 | 0.217 | 0.21 | 0.209 | 0.133 | – |
| NCI-H358 | 0.146 | 0.16 | 0.129 | 0.122 | 0.185 | 0.167 | 0.161 | 0.146 | 0.17 | 0.122 |
| NCI-H1944 | 0.437 | 0.383 | 0.44 | 0.446 | 0.201 | 0.212 | 0.218 | 0.131 | 0.164 | 0.455 |
| NCI-H2342 | 0.931 | 0.826 | 0.736 | 0.988 | 0.309 | 0.302 | 0.291 | 0.28 | 0.301 | 0.801 |
| EPLC-272H | 0.294 | 0.287 | 0.284 | 0.33 | 0.42 | 0.397 | 0.389 | 0.29 | 0.418 | – |
| NCI-H1915 | 0.348 | 0.307 | 0.297 | 0.342 | 0.3 | 0.316 | 0.314 | 0.287 | 0.302 | 0.318 |
| NCI-H596 | 0.864 | 0.843 | 0.733 | 0.813 | 0.677 | 0.637 | 0.645 | 0.565 | 0.522 | 0.831 |
| NCI-H322M | 0.483 | 0.575 | 0.567 | 0.545 | 0.266 | 0.24 | 0.248 | 0.214 | 0.272 | – |
| NCI-H2228 | 0.666 | 0.362 | 0.537 | 0.372 | 0.44 | 0.473 | 0.485 | 0.188 | 0.184 | 0.564 |
| NCI-H522 | 0.651 | 0.653 | 0.751 | 0.589 | 0.807 | 0.844 | 0.911 | – | 0.946 | 0.745 |
| NCI-H647 | 0.467 | 0.457 | 0.472 | 0.474 | 0.217 | 0.153 | 0.156 | 0.184 | 0.167 | 0.449 |
| SK-MES-1 | 0.589 | 0.539 | 0.492 | 0.459 | 0.337 | 0.378 | 0.327 | 0.379 | 0.267 | 0.55 |
| NCI-H2170 | 1.07 | 0.939 | 0.919 | 0.973 | 0.437 | 0.612 | 0.474 | 0.513 | 0.569 | 0.85 |
| NCI-H2085 | 0.518 | 0.61 | 0.554 | 0.761 | 0.242 | 0.222 | 0.278 | 0.269 | 0.166 | 0.581 |

| Cell Line | relative viability (Selisistat + Trametinib; first compound 0.4 µM) | relative viability (Selisistat + Trametinib; first compound 1.265 µM) | relative viability (Selisistat + Trametinib; first compound 12.65 µM) | relative viability (Selisistat + Trametinib; first compound 40 µM) | relative viability (Serdemetan + Dasatinib; first compound 0.04 µM) | relative viability (Serdemetan + Dasatinib; first compound 0.1265 µM) | relative viability (Serdemetan + Dasatinib; first compound 0.4 µM) | relative viability (Serdemetan + Dasatinib; first compound 1.265 µM) | relative viability (Serdemetan + Dasatinib; first compound 4 µM) | relative viability (Selisistat + Trametinib; first compound 4 µM) |
| --- | --- | --- | --- | --- | --- | --- | --- | --- | --- | --- |
| SW 1573 | 0.615 | 0.505 | 0.563 | 0.565 | 0.452 | 0.488 | 0.511 | 0.396 | 0.217 | – |
| NCI-H727 | 0.467 | 0.38 | 0.427 | 0.44 | 0.36 | 0.42 | 0.445 | 0.251 | 0.25 | 0.409 |
| NCI-H441 | 0.455 | 0.432 | 0.398 | 0.452 | 0.69 | 0.649 | 0.516 | 0.585 | 0.435 | 0.363 |
| LOU-NH91 | 0.805 | 0.799 | 0.798 | 0.776 | 0.564 | 0.554 | 0.371 | 0.43 | 0.565 | 0.767 |
| NCI-H3122 | 0.199 | 0.258 | 0.3 | 0.213 | 0.827 | 0.792 | 0.919 | – | 0.782 | – |
| NCI-H460 | 0.129 | 0.128 | 0.117 | 0.142 | 0.616 | 0.545 | 0.47 | 0.258 | 0.141 | 0.0976 |
| NCI-H650 | 0.978 | 1.01 | 0.909 | 1.01 | 0.424 | 0.449 | 0.451 | 0.35 | 0.43 | 0.967 |
| NCI-H661 | 0.522 | 0.541 | 0.502 | 0.45 | 0.856 | 0.916 | 0.849 | – | 0.564 | 0.442 |
| NCI-H1793 | 0.38 | 0.431 | 0.438 | 0.381 | 0.355 | 0.308 | 0.383 | 0.21 | 0.259 | – |
| NCI-H1734 | 0.714 | 0.674 | 0.694 | 0.718 | 0.384 | 0.371 | 0.402 | 0.117 | 0.131 | 0.656 |
| LXF-289 | 0.72 | 0.727 | 0.69 | 0.731 | 0.231 | 0.197 | 0.199 | 0.202 | 0.185 | 0.646 |
| H3255 | 0.664 | 0.526 | 0.636 | 0.637 | 0.422 | 0.384 | 0.258 | 0.323 | 0.431 | 0.584 |
| 201T | 0.761 | 0.655 | 0.691 | 0.749 | 0.568 | 0.508 | 0.546 | 0.449 | 0.464 | 0.71 |
| NCI-H2126 | 0.557 | 0.57 | 0.555 | 0.605 | 0.643 | 0.665 | 0.517 | 0.467 | 0.557 | 0.565 |
| HOP-62 | 0.431 | 0.394 | 0.401 | 0.408 | 0.561 | 0.625 | 0.636 | 0.538 | 0.567 | 0.362 |
| CAL-12T | 0.375 | 0.365 | 0.311 | 0.341 | 0.392 | 0.516 | 0.429 | 0.456 | 0.292 | 0.35 |
